From article PMC8241142 (Drug Delivery, 2017) come the findings set out here.

Data set [1] can be described thus: In vitro release of DZP samples (USP II paddle method). Format: physicochemical. The following applies: deionized water, 37 °C, 50 rpm. The method, then: (§1) Dissolution studies of samples were carried out according to a USP II paddle method at 37 °C with a stirrer rotation speed of 50 rpm in a dissolution apparatus (ZRD6-B, Shanghai Huanghai Medicament Test Instrument Factory, Shanghai, China). […] At predetermined time intervals, 5 ml samples were taken out and replaced by fresh medium immediately. Then, samples were passed through a 0.22 μm membrane filter and were transferred to UV/Vis analysis at the wavelength of 240 nm.

Data set [2] is described as follows: In vitro release of NMS samples (USP II paddle method, PBS pH 7.8). In kind it is physicochemical. Conditions: PBS pH 7.8, 37 °C. As to the method: as §1
Samples containing 5 mg NMS were put into 250 ml phosphate buffer solutions (PBS, pH 7.8) at 37 °C.

The subject of data set [3] is mouse ear swelling caused by xylene. Nature of the data set: Mouse ear swelling test (MEST). Format: in vivo, Kunming mice. Conditions: intragastric, 0.6 mg NMS, 50 min. The method, then:
The mouse ear swelling test was developed to further evaluate the swelling inhibition potential of NMS/CMS. In detail, 16 male Kunming mice weighing 18–22 g were randomly divided into four groups (n = 4): NS group (negative control group), NMS group (positive control group), NMS/CMS group ([…]) and NMS/MCM41 group ([…]). Samples containing 0.6 mg NMS were suspended in normal saline and imposed to mice in all groups by intragastric administration. Mice in NS group were exposed to normal saline only. At 30 min after administration, 0.1 ml xylene was applied on each side of the left ear of mice, and the right ear regarded as a reference was left untreated. After 50 min, mice were executed, both ears were removed, and tissues with diameter of 0.6 cm were cut off by hole punch. The weight of the tissues cut from left and right ears was measured by electronic scale. The repression rate and the degree of ear swelling were, respectively, expressed as: (3) Repression rate (%)=(wL-wR)negative control-(wL-wR)test/(wL-wR)negative control-(wL-wR)positive control×100 (4) Swelling rate (%)=wL-wR/wR×100 where w L is the weight of tissue cut from the left ear and w R is the weight of tissue cut from the right ear of the same mice.

For the compound `CN1C(=O)CN=C(c2ccccc2)c2cc(Cl)ccc21` [DZP, Diazepam], the “cumulative release percentage within 24 h” value in data set [1] amounted to 66.75%.

As to `CS(=O)(=O)Nc1ccc([N+](=O)[O-])cc1Oc1ccccc1` [NMS, Nimesulide], the “accumulative release percentage within 24 h” value in data set [2] was 93.1%. For the same compound, the ear swelling rate in data set [3] is recorded as 32.4%.
